In US20190031676A1, “ANTIBACTERIAL ANNULATED PYRROLIDIN-2-ONE DERIVATIVES” (priority 2015, published 2019):
In brackets after ≈: the same amount, converted by molar mass. Like-named read-outs stand apart in the source and are kept apart here.

What was measured:
Type in all cases: cell-based
K. pneumoniae A-651 = assay: Bacterial growth minimal inhibitory concentration (microdilution, cation-adjusted Mueller-Hinton Broth); settings: Klebsiella pneumoniae, A651; multiply-resistant strain (in particular quinolone-resistant)
Method: (§1) Minimal Inhibitory Concentrations (MICs; mg/L) were determined in cation-adjusted Mueller-Hinton Broth by a microdilution method following the description given in “Methods for Dilution Antimicrobial Susceptibility Tests for Bacteria that grow Aerobically”, Approved standard, 7th ed., Clinical and Laboratory Standards Institute (CLSI) Document M7-A7, Wayne, Pa., USA (2006).
(§2) All Example compounds were tested against several Gram-positive and Gram-negative bacteria. […] K. pneumoniae A-651 is a multiply-resistant strain (in particular quinolone-resistant), while E. coli ATCC25922 and P. aeruginosa ATCC27853 are quinolone-sensitive strains.

E. coli ATCC25922 = assay: as above; settings: Escherichia coli, ATCC25922; quinolone-sensitive strain
Method: as §1, §2

P. aeruginosa ATCC27853 = assay: as above; settings: Pseudomonas aeruginosa, ATCC27853; quinolone-sensitive strain
Method: as §1, §2

wild-type E. coli A-1261 = assay: MIC against wild-type E. coli A-1261 with or without alkaline phosphatase or esterase (prodrug activation); settings: Escherichia coli
Method: Minimal Inhibitory Concentrations (MICs; mg/L) were determined in cation-adjusted Mueller-Hinton Broth by a microdilution method following the description given in “Methods for Dilution Antimicrobial Susceptibility Tests for Bacteria that grow Aerobically”, Approved standard, 7th ed., Clinical and Laboratory Standards Institute (CLSI) Document M7-A7, Wayne, Pa., USA (2006). The compounds of Examples 4 and 16 were tested against wild-type E. coli A-1261 in the absence of alkaline phosphatase or esterase, in the presence of an alkaline phosphatase, and in the presence of an esterase. The corresponding antibacterial test results are given in Table 2 hereafter (MICs in mg/L).

C[C@@](CCN1Cc2cc(C#CC#C[C@H]3C[C@]3(F)CO)sc2C1=O)(C(=O)NO)S(C)(=O)=O [Example 4, (2R)-4-(2-(((1R,2R)-2-fluoro-2-(hydroxymethyl)cyclopropyl)buta-1,3-diyn-1-yl)-6-oxo-4,6-dihydro-5H-thieno[2,3-c]pyrrol-5-yl)-N-hydroxy-2-methyl-2-(methylsulfonyl)butanamide]
MIC (K. pneumoniae A-651): 0.5 µg/mL (≈ 1.07 µM) | MIC (E. coli ATCC25922): 0.25 µg/mL (≈ 0.534 µM) | MIC (P. aeruginosa ATCC27853): 0.5 µg/mL (≈ 1.07 µM) | MIC (wild-type E. coli A-1261; alkaline phosphatase 2 i.U./mL, read-out: MIC for E. coli A-1261 In the presence of an alkaline phosphatase (2 i.U./mL)): 0.25 µg/mL | MIC (wild-type E. coli A-1261; esterase 10 i.U./mL, read-out: MIC for E. coli A-1261 In the presence of an esterase (10 i.U./mL)): 0.25 µg/mL | MIC (wild-type E. coli A-1261; no alkaline phosphatase or esterase, read-out: MIC for E. coli A-1261 In the absence of alkaline phosphatase or esterase): 0.125 µg/mL (≈ 0.267 µM)
